According to ChEMBL document CHEMBL4483862, “Open-source discovery of chemical leads for next-generation chemoprotective antimalarials” (2018):

Test system: Plasmodium berghei
Assay: Luciferase/luciferin-expressing antifolate-resistant parasites were used to infect a culture of HepG2 cells that were pre-incubated with compounds. Infected hepatocytes emit light due to the luciferase reaction. Assay results are presented as the percent inhibition of light emission compared to control. […]
Type: functional
Settings: sporozoite; for IC90: read-out: LUCIFERASE INFECTION ASSAY - IC90

Row | Compound | IC90 [µM] | other results
1 | Cc1noc(/C=C/c2nn(C)cc2Cl)c1[N+](=O)[O-] | 11.7 | IC50 (HEPG2TOX_HILL_SLOPE 8.49, HEPG2TOX_R_SQUARED 0.211, PBLUC_HILL_SLOPE 2.15, PBLUC_R_SQUARED 0.722, read-out: LUCIFERASE INFECTION ASSAY - IC50): 4.22 µM
2 | C[n+]1c(-c2ccccc2)cc(CCCCc2cc(-c3ccccc3)[n+](C)c(-c3ccccc3)c2)cc1-c1ccccc1 | > 10 | IC50 (HEPG2TOX_HILL_SLOPE 8.54, HEPG2TOX_R_SQUARED 0.649, PBLUC_HILL_SLOPE 17.9, PBLUC_R_SQUARED 0.599, read-out: LUCIFERASE INFECTION ASSAY - IC50): 9.47 µM
3 | C=CCNc1nc2cc(-c3ccccc3C)sc2c(=O)n1C | > 10.6 | IC50 (HEPG2TOX_HILL_SLOPE 8.49, HEPG2TOX_R_SQUARED 0.617, read-out: LUCIFERASE INFECTION ASSAY - IC50): > 10.6 µM
4 | COc1ccc(-c2cnc(N)c(-c3ccc(O)c(OC)c3)c2)cc1 | 3.77 | IC50 (HEPG2TOX_HILL_SLOPE 8.61, HEPG2TOX_R_SQUARED 0.753, PBLUC_HILL_SLOPE 13.4, PBLUC_R_SQUARED 0.628, read-out: LUCIFERASE INFECTION ASSAY - IC50): 3.2 µM
5 | Cc1cccc(-c2nc3ccnc(Nc4ccc(C(C)C)cc4)c3[nH]2)c1 | > 10 | IC50 (HEPG2TOX_HILL_SLOPE 8.42, HEPG2TOX_R_SQUARED 0.9, PBLUC_HILL_SLOPE 13.4, PBLUC_R_SQUARED 0.519, read-out: LUCIFERASE INFECTION ASSAY - IC50): 8.58 µM
6 | O=C(Nc1ccc(OC(F)(F)F)cc1)Nc1ccc(Sc2ccccc2)nc1Sc1ccccc1 | 1.18 | IC50 (HEPG2TOX_HILL_SLOPE 8.48, HEPG2TOX_R_SQUARED 0.476, PBLUC_HILL_SLOPE 1.76, PBLUC_R_SQUARED 0.832, read-out: LUCIFERASE INFECTION ASSAY - IC50): 0.339 µM
7 | COc1cc(OC)c(C2NC(=O)c3ccc(Cl)cc3N2)cc1OC (configuration not stated) | > 10 | IC50 (HEPG2TOX_HILL_SLOPE 8.48, HEPG2TOX_R_SQUARED 0.352, read-out: LUCIFERASE INFECTION ASSAY - IC50): > 10 µM
8 | COc1cc(OC)cc(C(=O)Nc2nc3ccc(C)cn3c2C(=O)NC2CCCC2)c1 | 6.19 | IC50 (HEPG2TOX_HILL_SLOPE 8.61, HEPG2TOX_R_SQUARED 0.625, PBLUC_HILL_SLOPE 3.28, PBLUC_R_SQUARED 0.589, read-out: LUCIFERASE INFECTION ASSAY - IC50): 3.16 µM
9 | Cc1ccc2nc(NC(=O)c3cc(F)ccc3F)c(C(=O)NCC(C)C)n2c1 | 3.13 | IC50 (HEPG2TOX_HILL_SLOPE 8.58, HEPG2TOX_R_SQUARED 0.935, PBLUC_HILL_SLOPE 15.1, PBLUC_R_SQUARED 0.738, read-out: LUCIFERASE INFECTION ASSAY - IC50): 2.71 µM
10 | O=C(NCc1sccc1CSc1ccc(Cl)cc1)Nc1cccc(C(F)(F)F)c1 | 5.08 | IC50 (HEPG2TOX_HILL_SLOPE 8.54, HEPG2TOX_R_SQUARED 0.938, PBLUC_HILL_SLOPE 7.51, PBLUC_R_SQUARED 0.41, read-out: LUCIFERASE INFECTION ASSAY - IC50): 3.79 µM
11 | CN(C)S(=O)(=O)c1ccc(N2CCCC2)c(C(=O)Nc2nc(-c3ccccn3)cs2)c1 | 9.7 | IC50 (HEPG2TOX_HILL_SLOPE 8.6, HEPG2TOX_R_SQUARED 0.463, PBLUC_HILL_SLOPE 5.89, PBLUC_R_SQUARED 0.378, read-out: LUCIFERASE INFECTION ASSAY - IC50): 6.68 µM
12 | CS(=O)(=O)Nc1ccc(-c2csc(NC(=O)c3sc4sccc4c3Cl)n2)cc1 | 9.72 | IC50 (HEPG2TOX_HILL_SLOPE 8.43, HEPG2TOX_R_SQUARED 0.307, PBLUC_HILL_SLOPE 11.2, PBLUC_R_SQUARED 0.136, read-out: LUCIFERASE INFECTION ASSAY - IC50): 7.99 µM
13 | CC(=O)c1cccc(-c2cnc3ccc(-c4cccc(C(F)(F)F)c4)nn23)c1 | 4.27 | IC50 (HEPG2TOX_HILL_SLOPE 8.49, HEPG2TOX_R_SQUARED 0.595, PBLUC_HILL_SLOPE 2.29, PBLUC_R_SQUARED 0.849, read-out: LUCIFERASE INFECTION ASSAY - IC50): 1.64 µM
14 | O=C(NC1CC1)c1ccc(-c2cnc3c(Nc4cccc(OC(F)(F)C(F)F)c4)nccn23)cc1 | 2.49 | IC50 (HEPG2TOX_HILL_SLOPE 8.49, HEPG2TOX_R_SQUARED 0.235, PBLUC_HILL_SLOPE 3.35, PBLUC_R_SQUARED 0.643, read-out: LUCIFERASE INFECTION ASSAY - IC50): 1.29 µM
15 | Clc1ccc(CSC2=NNC(c3ccccn3)S2)cc1 (configuration not stated) | 9.43 | IC50 (HEPG2TOX_HILL_SLOPE 8.57, HEPG2TOX_R_SQUARED 0.799, PBLUC_HILL_SLOPE 12, PBLUC_R_SQUARED 0.743, read-out: LUCIFERASE INFECTION ASSAY - IC50): 7.86 µM
16 | Cc1cc(-c2ccccc2)c(-c2nc3ccccc3[nH]2)[nH]1 | 1.38 | IC50 (HEPG2TOX_HILL_SLOPE 8.44, HEPG2TOX_R_SQUARED 0.516, PBLUC_HILL_SLOPE 11.1, PBLUC_R_SQUARED 0.785, read-out: LUCIFERASE INFECTION ASSAY - IC50): 1.13 µM

Row | Compound | IC90 [µM] | other results
17 | Cc1cc(C(=O)COC(=O)c2ccccc2S(=O)(=O)N(C)c2ccccc2)c(C)n1C1CC1 | > 10 | IC50 (HEPG2TOX_HILL_SLOPE 8.61, HEPG2TOX_R_SQUARED 0.607, read-out: LUCIFERASE INFECTION ASSAY - IC50): > 10 µM
18 | O=C(Nc1cc(C(F)(F)F)cc(C(F)(F)F)c1)Nc1cnn(-c2ccccc2)c1C(F)(F)F | 2.67 | IC50 (HEPG2TOX_HILL_SLOPE 8.4, HEPG2TOX_R_SQUARED 0.935, PBLUC_HILL_SLOPE 10.9, PBLUC_R_SQUARED 0.166, read-out: LUCIFERASE INFECTION ASSAY - IC50): 2.19 µM
19 | CCOc1cc(C(=O)N/N=C/c2c(C)[nH]c3ccccc23)cc(OCC)c1OCC | > 10 | IC50 (HEPG2TOX_HILL_SLOPE 8.54, 2.60, HEPG2TOX_R_SQUARED 0.0840, 0.979, PBLUC_HILL_SLOPE 9.58, PBLUC_R_SQUARED 0.194, read-out: LUCIFERASE INFECTION ASSAY - IC50): 9.1 µM
20 | COc1ccc(Cn2nc(-c3ccccc3)cc2-c2ccccc2O)cc1 | 1.33 | IC50 (HEPG2TOX_HILL_SLOPE 8.58, HEPG2TOX_R_SQUARED 0.567, PBLUC_HILL_SLOPE 13.6, PBLUC_R_SQUARED 0.554, read-out: LUCIFERASE INFECTION ASSAY - IC50): 1.13 µM
21 | Cc1cc(-c2ccccc2)nc2c1/C(=N\O)CC(C)(C)C2 | > 11.8 | IC50 (HEPG2TOX_HILL_SLOPE 8.55, HEPG2TOX_R_SQUARED 0.808, PBLUC_HILL_SLOPE 3.52, PBLUC_R_SQUARED 0.12, read-out: LUCIFERASE INFECTION ASSAY - IC50): 8.87 µM
22 | COc1ccc(-c2c(C)nn3c(NCc4ccccn4)cc(C)nc23)cc1OC | 7.49 | IC50 (HEPG2TOX_HILL_SLOPE 8.52, HEPG2TOX_R_SQUARED 0.776, PBLUC_HILL_SLOPE 1.28, PBLUC_R_SQUARED 0.799, read-out: LUCIFERASE INFECTION ASSAY - IC50): 1.34 µM
23 | COc1ccccc1-c1nc2c3c(C)c(C)n(-c4ccccc4OC)c3ncn2n1 | 7.51 | IC50 (HEPG2TOX_HILL_SLOPE 8.61, HEPG2TOX_R_SQUARED 0.202, PBLUC_HILL_SLOPE 3.56, PBLUC_R_SQUARED 0.654, read-out: LUCIFERASE INFECTION ASSAY - IC50): 4.05 µM
24 | COc1ccc(CCN2C(=O)N(C(C)C)C(=O)C23CCN(Cc2cc4ccccc4[nH]2)CC3)cc1 | 6.63 | IC50 (HEPG2TOX_HILL_SLOPE 8.55, HEPG2TOX_R_SQUARED 0.942, PBLUC_HILL_SLOPE 15.5, PBLUC_R_SQUARED 0.628, read-out: LUCIFERASE INFECTION ASSAY - IC50): 5.75 µM
25 | OC(c1cc(C(F)(F)F)cc(C(F)(F)F)c1)c1cc(C(F)(F)F)cc(C(F)(F)F)c1 | > 7.23 | IC50 (HEPG2TOX_HILL_SLOPE 8.63, HEPG2TOX_R_SQUARED 0.166, read-out: LUCIFERASE INFECTION ASSAY - IC50): > 7.23 µM
26 | CC(C)(C)c1ccc(-c2csc(NC(=O)c3cnccn3)n2)cc1 | > 10 | IC50 (HEPG2TOX_HILL_SLOPE 8.57, HEPG2TOX_R_SQUARED 0.595, PBLUC_HILL_SLOPE 12.7, PBLUC_R_SQUARED 0.201, read-out: LUCIFERASE INFECTION ASSAY - IC50): 9.05 µM
27 | COc1cc(-c2cnc3c(Nc4cccc(OC(F)(F)C(F)F)c4)nccn23)cc(OC)c1OC | 5.38 | IC50 (HEPG2TOX_HILL_SLOPE 8.4, HEPG2TOX_R_SQUARED 0.356, PBLUC_HILL_SLOPE 3.39, PBLUC_R_SQUARED 0.397, read-out: LUCIFERASE INFECTION ASSAY - IC50): 2.81 µM
28 | OC(CN1CC=C(c2c[nH]c3ccccc23)CC1)c1ccccc1 (configuration not stated) | > 10 | IC50 (HEPG2TOX_HILL_SLOPE 8.59, HEPG2TOX_R_SQUARED 0.892, PBLUC_HILL_SLOPE 2.5, PBLUC_R_SQUARED 0.397, read-out: LUCIFERASE INFECTION ASSAY - IC50): 5.3 µM
29 | CS(=O)(=O)Nc1cccc(CNC(=O)c2cccc3c4c([nH]c23)CCCC4)c1 | > 10 | IC50 (HEPG2TOX_HILL_SLOPE 8.62, HEPG2TOX_R_SQUARED 0.723, PBLUC_HILL_SLOPE 1.82, PBLUC_R_SQUARED 0.711, read-out: LUCIFERASE INFECTION ASSAY - IC50): 5.31 µM
30 | N#Cc1ccc(-c2cnc3ccc(NCc4ccc(S(N)(=O)=O)cc4)nn23)cc1 | 3.66 | IC50 (HEPG2TOX_HILL_SLOPE 8.58, HEPG2TOX_R_SQUARED 0.551, PBLUC_HILL_SLOPE 11.6, PBLUC_R_SQUARED 0.236, read-out: LUCIFERASE INFECTION ASSAY - IC50): 3.03 µM
31 | CC(C)c1ccc(N2C(=O)C=CC2=O)cc1 | > 15.3 | IC50 (HEPG2TOX_HILL_SLOPE 8.61, HEPG2TOX_R_SQUARED 0.25, PBLUC_HILL_SLOPE 3.82, PBLUC_R_SQUARED 0.327, read-out: LUCIFERASE INFECTION ASSAY - IC50): 9.69 µM
